Laboratory results: patent US9095624B2 (priority 2011, dated 2015)

Experiments:
[1] = tested on: Balb/c ByJIco-nu/nu mice with A431 human epidermoid carcinoma xenografts; details: mouse, in vivo
[2] = tested on: C57Black/6J mice with B16-F1 melanoma; test: Photodynamic therapy, B16-F1 melanoma; type: in vivo
Procedure: (§1) In order to evaluate the potential utility of MTP for enhancing the therapeutic efficacy of a drug that requires localization within the cell nucleus to be effective, photodynamic therapy (PDT) studies were performed in three different murine subcutaneous tumor models, with PDT initiated three hours after photosensitizer (PS) injection. The comparative efficacy of photodynamic therapy with bacteriochlorin p conjugated with DTox-HMP-NLS-αMSH MTP and free bacteriochlorin p is reported in FIGS. 11A-D.
The first experiment was performed in C57Black/6J mice with B16-F1 melanoma. FIG. 11A reports tumor growth, mean±SEM, with injection and illumination cycles indicated with arrows. The average tumor volumes are shown up to the last day when all animals were alive in a group. FIG. 11B provides the Kaplan-Meier survival curve. […] The median survival for mice receiving PS-MTP conjugate was 32.0±1.3 days compared with 17.0±1.5 days for the control group and 20.0±5.5 days for the bacteriochlorin group (FIG. 11B). The difference in survival between PS-MTP and each of two control groups was significant (p<0.01).

[3] = tested on: DBA/2 mice with Cloudman S91 melanoma; test: Photodynamic therapy, Cloudman S91 melanoma; type: in vivo; details: PDT
Procedure: as §1
The second experiment utilized DBA/2 mice with Cloudman S91 melanoma. FIG. 11C reports tumor growth, mean±SEM with the injection and illumination cycles being indicated with arrows. The average tumor volumes are shown up to the last day when all animals were alive in a group. FIG. 11D provides the Kaplan-Meier survival curve. […] The median survival for mice receiving PS-MTP conjugate was 56.0±18.6 days compared with 21.0±0.7 days for the control group and 31.0±1.3 days for the bacteriochlorin group (FIG. 11D).

Molecule	animals remaining alive at the end of the observation period [1]	median survival ([2]; PDT)	inhibition in tumor growth ([2]; PDT three hours after photosensitizer injection)	median survival [3]
C=Cc1c(C)c2cc3nc(c(CC(=O)O)c4[nH]c(cc5nc(cc1[nH]2)C(C)=C5CC)c(C)c4C(=O)O)[C@@H](CCC(=O)O)[C@@H]3C [chlorin e6]	20%			
bacteriochlorin p		20.0 ± 5.5 days	no significant effect	31.0 ± 1.3 days
